Data taken from publication PMC10967972, “Different Coactivator Recruitment to Human PPARα/δ/γ Ligand-Binding Domains by Eight PPAR Agonists to Treat Nonalcoholic Fatty Liver Disease” (Biomedicines, 2024).
Read-outs that look alike come from different tables or passages of the source.

Tests used:
Assay type in all cases: biochemical
[1] = target: T1, human PPARα-LBD (Homo sapiens, UniProt Q07869); assay: TR-FRET coactivator recruitment assay, PPARα-LBD
T1 construct: Human PPARα-LBD [amino acids (AAs) 200–468]; made in house
T1 sequence (Q07869 200-468): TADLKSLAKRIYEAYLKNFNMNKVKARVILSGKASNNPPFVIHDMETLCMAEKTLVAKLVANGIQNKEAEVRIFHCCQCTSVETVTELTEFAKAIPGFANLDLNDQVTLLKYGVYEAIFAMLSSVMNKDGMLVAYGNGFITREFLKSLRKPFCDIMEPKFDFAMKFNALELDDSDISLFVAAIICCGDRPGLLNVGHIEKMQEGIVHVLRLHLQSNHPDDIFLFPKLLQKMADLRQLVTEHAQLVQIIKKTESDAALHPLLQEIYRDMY

[2] = target: T2, human PPARδ-LBD (Homo sapiens, UniProt Q03181); assay: TR-FRET coactivator recruitment assay, PPARδ-LBD; conditions: for EC50: Buffer A
T2 construct: PPARδ-LBD (AAs 170–441); made in house
T2 sequence (Q03181 170-441): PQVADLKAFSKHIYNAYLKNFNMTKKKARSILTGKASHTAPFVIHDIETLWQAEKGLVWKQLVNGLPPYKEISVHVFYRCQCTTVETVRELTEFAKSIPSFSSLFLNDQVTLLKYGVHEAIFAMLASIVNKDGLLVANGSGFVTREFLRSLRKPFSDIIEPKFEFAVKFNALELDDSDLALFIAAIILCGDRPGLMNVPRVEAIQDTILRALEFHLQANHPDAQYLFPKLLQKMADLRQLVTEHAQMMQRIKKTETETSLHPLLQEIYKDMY

[3] = target: T3, human PPARγ-LBD (Homo sapiens, UniProt P37231); assay: TR-FRET coactivator recruitment assay, PPARγ-LBD; conditions: for EC50: Buffer A
T3 construct: PPARγ-LBD (AAs 203–477 in isoform 1); made in house
T3 sequence (P37231 203-477 isoform P37231-2): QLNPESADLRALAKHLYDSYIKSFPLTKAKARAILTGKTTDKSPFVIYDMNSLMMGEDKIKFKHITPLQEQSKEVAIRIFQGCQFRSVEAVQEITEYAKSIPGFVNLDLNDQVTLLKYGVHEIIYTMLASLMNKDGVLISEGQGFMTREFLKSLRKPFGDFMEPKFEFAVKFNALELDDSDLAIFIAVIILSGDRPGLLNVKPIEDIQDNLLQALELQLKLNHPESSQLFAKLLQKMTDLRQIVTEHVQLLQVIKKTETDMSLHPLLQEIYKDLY

[4] = evaluated based on EC50 values, PGC, PGC1α, SRC, SRC1, TRAP, TRAP220

CC[C@@H](Oc1cccc(CN(CCCOc2ccc(OC)cc2)c2nc3ccccc3o2)c1)C(=O)O [Pemafibrate, pemafibrate]
Approximate potency order in the recruitment of four coactivators, PPARα [1, 4]: CBP>PGC=SRC>TRAP
Emax ([1]; read-out: PPARα CBP % of GW7647 max response): 96.7%
Emax ([1]; read-out: PPARα PGC1α % of GW7647 max response): 74.5%
Emax ([1]; read-out: PPARα SRC1 % of GW7647 max response): 101%
Emax ([1]; read-out: PPARα TRAP220 % of GW7647 max response): 102%
EC50 ([2]; CBP peptide recruitment, read-out: PPARδ CBP EC50): 8.64 µM
EC50 ([2]; PGC1α peptide recruitment, read-out: PPARδ PGC1α EC50): 4.75 µM
EC50 ([2]; SRC1 peptide recruitment, read-out: PPARδ SRC1 EC50): 14.9 µM
EC50 ([2]; TRAP220 peptide recruitment, read-out: PPARδ TRAP220 EC50): 7.48 µM
Approximate potency order in the recruitment of four coactivators, PPARδ [2, 4]: PGC>CBP=TRAP>SRC
recruitment of coactivators to PPARδ-LBD (in words) ([2]; four coactivator peptides): effective
Emax ([2]; read-out: PPARδ CBP % of GW501516 max response): 74.6%
Emax ([2]; read-out: PPARδ PGC1α % of GW501516 max response): 91.1%
Emax ([2]; read-out: PPARδ SRC1 % of GW501516 max response): 58.6%
Emax ([2]; read-out: PPARδ TRAP220 % of GW501516 max response): 77.3%
EC50 ([3]; CBP peptide recruitment, read-out: PPARγ CBP EC50): 5.58 µM
EC50 ([3]; PGC1α peptide recruitment, read-out: PPARγ PGC1α EC50): 8.02 µM
EC50 ([3]; SRC1 peptide recruitment, read-out: PPARγ SRC1 EC50): 13.8 µM
EC50 ([3]; TRAP220 peptide recruitment, read-out: PPARγ TRAP220 EC50): 5.59 µM
Approximate potency order in the recruitment of four coactivators, PPARγ [3, 4]: CBP=TRAP>PGC>SRC
Emax ([3]; read-out: PPARγ CBP % of GW1929 max response): 80.3%
Emax ([3]; read-out: PPARγ PGC1α % of GW1929 max response): 50.8%
Emax ([3]; read-out: PPARγ SRC1 % of GW1929 max response): 27.7%
Emax ([3]; read-out: PPARγ TRAP220 % of GW1929 max response): 82.5%
